Structures can show the parent of a compound that is named as a salt. Where two headings read alike, the source gives them in different places.
How the values were obtained:
[1] = target: T1, soluble CI‐M6P/IGF2R:D1–D15 (Homo sapiens, UniProt P11717); test: Reverse saturation fluorescence polarization binding of fluorescent glycopeptide 1
T1 construct: domains 1–15 (residues AA 41–2304); gp67 signal peptide (X1) (N, cleaved yes); 6‐His‐tag (C); PreScission protease cutting site (C); TwinStrep‐tag (C); made in house; host or cells: Spodoptera frugiperda Sf9 insect cells (baculovirus, pFastBac-1), secreted into the medium
Text: The gene encoding human CI‐M6P/IGF2R domains 1–15 (residues AA 41–2304) fused to an N‐terminal gp67 signal peptide ([…]) and C‐terminal 6‐His‐tag, PreScission protease cutting site, and TwinStrep‐tag in pFastBac‐1 vector was used for bacmid generation in DH10Bac E. coli (Thermo Fisher Scientific). The recombinant bacmid DNA was purified using alkaline extraction and transfected using ExpiFectamine‐Sf (Thermo Fisher Scientific) into Spodoptera frugiperda 9 (Sf9) cells. […] Expression of the recombinant protein was assessed by SDS‐PAGE and Western Blot analysis. […]
We employed a fluorescence polarization (FP) binding assay to assess the binding affinity of the tested compounds for a soluble CI‐M6P/IGF2R ectodomain construct. […] Upon binding to the CI‐M6P/IGF2R protein, the probe's rotation slows, resulting in increased fluorescence polarization. This shift is quantified as anisotropy (or polarization), which reflects the ratio of bound to free probe, enabling binding affinity estimation without phase separation.^[ [26] ^] […]
We first analyzed the interaction between soluble CI‐M6P/IGF2R:D1–D15 and the fluorescent probe (glycopeptide 1) using a reverse saturation binding assay in solution. […]

CI‐M6P/IGF2R:D1–D15 = target: T2, CI‐M6P/IGF2R:D1–D15 (Homo sapiens, UniProt P11717); test: Competitive fluorescence polarization assay (displacement of fluorescent glycopeptide 1); type: binding; details: for Potency (relative binding potency): (IC50 of compound 2 / IC50 of compound) × 100
T2 construct: domains 1–15 (residues AA 41–2304); gp67 signal peptide (X1) (N, cleaved yes); 6‐His‐tag (C); PreScission protease cutting site (C); TwinStrep‐tag (C); made in house; host or cells: Spodoptera frugiperda Sf9 insect cells (baculovirus, pFastBac-1), secreted into the medium
Experimental: The recombinant bacmid DNA was purified using alkaline extraction and transfected using ExpiFectamine‐Sf (Thermo Fisher Scientific) into Spodoptera frugiperda 9 (Sf9) cells. The first generation of recombinant baculovirus was harvested after 5 days post‐transfection and amplified in subsequent shaking cultures of Sf9 in SF‐900 II serum‐free media (Thermo Fisher Scientific) at 27 °C and 130 rpm at a density of 2 × 10^6 cells/ml. Media containing viral particles were harvested after four days, and the amplification step was repeated to obtain high‐titer P2 stock, which was then used in large‐scale expression. […] The column was washed with a buffer containing 100 mM Tris‐HCl and 150 mM NaCl (pH 8.0), and the recombinant protein was eluted using the same buffer supplemented with 50 mM biotin. Expression of the recombinant protein was assessed by SDS‐PAGE and Western Blot analysis. Folding was checked by a competitive binding assay with radioactively labeled IGF2 (a natural ligand of IGF2R).^[ [25] ^]
We employed a fluorescence polarization (FP) binding assay to assess the binding affinity of the tested compounds for a soluble CI‐M6P/IGF2R ectodomain construct. This method monitors the rotational speed of a fluorescent probe—specifically, a fluorescein‐labeled glycopeptide 1. Upon binding to the CI‐M6P/IGF2R protein, the probe's rotation slows, resulting in increased fluorescence polarization. This shift is quantified as anisotropy (or polarization), which reflects the ratio of bound to free probe, enabling binding affinity estimation without phase separation.^[ [26] ^]
In all experiments, the compounds were dissolved in water and serially diluted with water in Echo Qualified 384‐Well PP Source Microplates using a BRAVO pipetting station (Agilent, USA). The compounds were then pre‐spotted onto black 384‐well low‐volume round‐bottom plates (Corning, USA) using an Echo 650 liquid handler (Beckman Coulter, USA) to obtain the desired final compound concentrations. Subsequently, 5 µL of the prepared mixture (soluble receptor and glycopeptide 1 in 100 mM Tris/HCl, 150 mM NaCl, pH 8.0) was added using either a MANTIS Liquid Dispenser (Formulatrix, Dubai, United Arab Emirates) or a Clicktip pipette (Thermo Fischer Scientific, USA). The plate was sealed with Duck Tape (Hampton Research USA) to prevent evaporation, shaken for 10 s at 800 rpm, centrifuged to remove bubbles, and then incubated at room temperature.
Next, competitive FP experiments were performed using a procedure analogous to previously reported methods.^[ [27] ^] […] Subsequently, 5 µL of a mixture containing CI‐M6P/IGF2R:D1–D15 (final concentration: 300 nM) and fluorescent glycopeptide 1 (final concentration: 10 nM) was added using a MANTIS Liquid Dispenser. The anisotropy data from the plate reader were plotted against the compound concentration using GraphPad Prism 8.0. A nonlinear regression analysis, “log [Inhibitor] versus response – Variable slope (four parameters),” was used to calculate the IC₅₀ values (the concentration at which half‐maximal inhibition is achieved) for each competition experiment. Relative binding affinities were calculated as (IC₅₀ of compound 2 / IC₅₀ of each compound) × 100 (%).

CI‐M6P/IGF2R = target: CI‐M6P/IGF2R; set-up: method as in PMID 3003148; details: monomeric M6P; cited from earlier work
[2] = receptor 300 nM, glycopeptide 1 10 nM, pH 8.0, mean of two independent measurements in triplicate ± S.D., read-out: IC50
[3] = receptor 300 nM, glycopeptide 1 10 nM, pH 8.0, mean of two independent measurements in triplicate ± S.D.

Potency (relative binding potency) (CI‐M6P/IGF2R:D1–D15) [%] | Compound | IC50 (CI‐M6P/IGF2R:D1–D15; [2]) [nM] | other results
– | NCCCC[C@H](NC(=O)[C@H](Cc1cn(CCO[C@H]2O[C@H](CCP(=O)(O)O)[C@@H](O)[C@H](O)[C@@H]2O)nn1)NC(=O)[C@H](CO)NC(=O)[C@H](Cc1cn(CCO[C@H]2O[C@H](CCP(=O)(O)O)[C@@H](O)[C@H](O)[C@@H]2O)nn1)NC(=O)[C@H](CCCCN)NC(=O)[C@H](Cc1cn(CCO[C@H]2O[C@H](CCP(=O)(O)O)[C@@H](O)[C@H](O)[C@@H]2O)nn1)NC(=O)[C@H](CO)NC(=O)[C@H](Cc1cn(CCO[C@H]2O[C@H](CCP(=O)(O)O)[C@@H](O)[C@H](O)[C@@H]2O)nn1)NC(=O)[C@H](CCCCN)NC(=O)[C@H](Cc1cn(CCO[C@H]2O[C@H](CCP(=O)(O)O)[C@@H](O)[C@H](O)[C@@H]2O)nn1)NC(=O)[C@H](CO)NC(=O)CNC(=O)c1ccc2c(c1)C(=O)OC21c2ccc(O)cc2Oc2cc(O)ccc21)C(N)=O [Compound 1] | – | Kd ([1]; glycopeptide 1 10 nM titrated with receptor 0-1500 nM, pH 8.0, read-out: dissociation constant (Kd)): ~400 nM; cooperativity coefficient (n), Hill koef ([1]; specific binding with Hill slope, glycopeptide 1 10 nM): −2.35
– | NCCCC[C@H](NC(=O)[C@H](Cc1cn(CCO[C@H]2O[C@H](CCP(=O)(O)O)[C@@H](O)[C@H](O)[C@@H]2O)nn1)NC(=O)[C@H](Cc1c[nH]c2ccccc12)NC(=O)[C@@H](N)Cc1cn(CCO[C@H]2O[C@H](CCP(=O)(O)O)[C@@H](O)[C@H](O)[C@@H]2O)nn1)C(=O)N[C@@H](Cc1cn(CCO[C@H]2O[C@H](CCP(=O)(O)O)[C@@H](O)[C@H](O)[C@@H]2O)nn1)C(N)=O [Compound 3] | – | IC50 (CI‐M6P/IGF2R:D1–D15): 490 ± 40 nM
– | CC(=O)NCCCC[C@H](NC(=O)[C@H](Cc1cn(CCO[C@H]2O[C@H](CCP(=O)(O)O)[C@@H](O)[C@H](O)[C@@H]2O)nn1)NC(=O)[C@H](Cc1c[nH]c2ccccc12)NC(=O)[C@H](Cc1cn(CCO[C@H]2O[C@H](CCP(=O)(O)O)[C@@H](O)[C@H](O)[C@@H]2O)nn1)NC(C)=O)C(=O)N[C@@H](Cc1cn(CCO[C@H]2O[C@H](CCP(=O)(O)O)[C@@H](O)[C@H](O)[C@@H]2O)nn1)C(N)=O [Compound 4] | – | IC50 (CI‐M6P/IGF2R:D1–D15): 490 ± 70 nM
– | NC(=O)[C@H](Cc1cn(CCO[C@H]2O[C@H](CCP(=O)(O)O)[C@@H](O)[C@H](O)[C@@H]2O)nn1)NC(=O)[C@H](Cc1c[nH]c2ccccc12)NC(=O)[C@@H](N)Cc1cn(CCO[C@H]2O[C@H](CCP(=O)(O)O)[C@@H](O)[C@H](O)[C@@H]2O)nn1 [Compound 5] | 480 ± 100 | –
– | CC(=O)N[C@@H](Cc1cn(CCO[C@H]2O[C@H](CCP(=O)(O)O)[C@@H](O)[C@H](O)[C@@H]2O)nn1)C(=O)N[C@@H](Cc1c[nH]c2ccccc12)C(=O)N[C@@H](Cc1cn(CCO[C@H]2O[C@H](CCP(=O)(O)O)[C@@H](O)[C@H](O)[C@@H]2O)nn1)C(N)=O [Compound 6] | 660 ± 900 | –
4.1 | CO[C@H]1O[C@H](CCP(=O)(O)O)[C@@H](O)[C@H](O)[C@@H]1O [Compound 8, Methyl 6-deoxy-6-phosphonomethyl-α-D-mannopyranoside bis(triethylammonium) salt] | – | IC50 (CI‐M6P/IGF2R:D1–D15; values used for comparison with calculations, read-out: experimental IC50 (as listed in Tables S1-S3)): 11500 nM
0.35 | CO[C@H]1O[C@H](CP(=O)(O)O)[C@@H](O)[C@H](O)[C@@H]1O [Compound 9] | 137000 ± 2000 | –
– | CO[C@H]1O[C@H](CCc2nnn[nH]2)[C@@H](O)[C@H](O)[C@@H]1O [Compound 10] | – | IC50 (CI‐M6P/IGF2R:D1–D15; [3]): did not bind and unmeasurably low and n.b.
0.85 | CO[C@H]1O[C@H](CCC(=O)O)[C@@H](O)[C@H](O)[C@@H]1O [Compound 11] | 56000 ± 12000 | fold reduction in binding affinity compared to native M6P 7 (CI‐M6P/IGF2R:D1–D15): fivefold
– | CO[C@H]1O[C@H](Cc2nnn[nH]2)[C@@H](O)[C@H](O)[C@@H]1O [Compound 12] | – | IC50 (CI‐M6P/IGF2R:D1–D15; [3]): did not bind and unmeasurably low and n.b.
11.3 | O=P(O)(O)CC[C@H]1O[C@H](C/C=C/c2ccc(O)cc2)[C@@H](O)[C@@H](O)[C@@H]1O [Compound 13] | 4200 ± 20 | fold increase in binding affinity compared to compound 8 (CI‐M6P/IGF2R:D1–D15): almost threefold
– | mannose‐6‐phosphate [Compound 7] | – | Kd (CI‐M6P/IGF2R): ~7 µM

Compound | Potency (relative binding potency) (CI‐M6P/IGF2R:D1–D15) [%] | IC50 (CI‐M6P/IGF2R:D1–D15; [2]) [nM] | other results
CC(=O)N[C@@H](Cc1c[nH]c2ccccc12)C(=O)N[C@@H](Cc1ccccc1)C(=O)NCC(=O)N[C@@H](CO)C(=O)N[C@@H](Cc1cn(CCO[C@H]2O[C@H](CCP(=O)(O)O)[C@@H](O)[C@H](O)[C@@H]2O)nn1)C(=O)N[C@@H](CCCCN)C(=O)N[C@@H](Cc1cn(CCO[C@H]2O[C@H](CCP(=O)(O)O)[C@@H](O)[C@H](O)[C@@H]2O)nn1)C(=O)N[C@@H](CO)C(=O)N[C@@H](Cc1cn(CCO[C@H]2O[C@H](CCP(=O)(O)O)[C@@H](O)[C@H](O)[C@@H]2O)nn1)C(=O)N[C@@H](CCCCN)C(=O)N[C@@H](Cc1cn(CCO[C@H]2O[C@H](CCP(=O)(O)O)[C@@H](O)[C@H](O)[C@@H]2O)nn1)C(=O)N[C@@H](CO)C(=O)N[C@@H](Cc1cn(CCO[C@H]2O[C@H](CCP(=O)(O)O)[C@@H](O)[C@H](O)[C@@H]2O)nn1)C(=O)N[C@@H](CCCCN)C(N)=O [Compound 2] | 100.0 | 480 ± 110 | –
